# Earlier results as cited in patent US20040018954A1, “Composition of menthol and menthyl lactate, its preparation method and its applications as a cooling agent” (priority 2002, published 2004).
# Settings: manufacturer's product literature
compound,measurement,value
"CC1CCC(C(C)C)C(OC(=O)C(C)O)C1 (centres unmarked) [Frescolat ML, menthyl lactate]",solubility,oil soluble
same,stable in the pH range,4-8
